Literature values in patent publication US20230330230A1, “SENSITISER FOR CANCER TREATMENT” (KORTUC INC, priority 2020, published 2023).

Columns and labels:
[1] = test system: prostate cancer (PC-3) cell line
[2] = test system: osteosarcoma (HS-Os-1) cell line
[3] = 0.1 mM H2O2 prior to IR, without DNA double strand breaks

What does the source list for OO [H2O2, hydrogen peroxide]?
response to H2O2 alone [1]: extreme resistance; effect of H2O2 prior to IR [1, 3]: enhanced cytotoxicity; response to H2O2 alone [2]: extreme resistance; effect of H2O2 prior to IR [2, 3]: enhanced cytotoxicity
